Test [1] has as its target T1, ASK1 (Homo sapiens, UniProt Q99683).
T1 construct: purchased Promega V3881
Briefly: ASK1 Kinase Assay (Promega ASK1 Kinase Enzyme System, ADP-Glo). Particulars: enzyme 50 nM, Myelin basic protein 1 μg/ml, ATP 10 μM. Format: biochemical. How it is done: ASK1 Kinase Assay. The ASK1 enzymatic assay was run following Promega ASK1 Kinase Enzyme System (Cat #V3881). The kit provides the protocol, enzymes and all reagents necessary to run an assay.
Firstly, the compounds, enzyme, substrate and ATP were diluted in provided assay buffer. The final concentration of the enzyme was 50 nM, substrate (Myelin basic protein) 1μg/ml and ATP 10 μM. The compound and the enzyme were pre-incubated in a 384 well white solid bottom plate (Greiner, Cat #784075) for 10 minutes. After incubation, the substrate and ATP were added and incubated for further 60 minutes. After 60 minutes, ADP-gloTM was added and plate was incubated for another 40 minutes. After 40 minutes, Kinase Detection Reagent was added and the plate was incubated for 45 minutes. After 45 minutes, plate was read on Perkin Elmer EnVision using luminescence read (0.5 seconds/well).

Test [2] deals with T2, recombinant human full-length DYRK1A protein (Homo sapiens, UniProt Q13627).
T2 construct: recombinant human full-length DYRK1A protein; GST; host or cells: insect cells
Briefly: DYRK1A Kinase Assay (microfluidics detection). In kind it is biochemical. Particulars: enzyme 0.01 nM, ATP 20 μM, DYRKtide peptide 1 μM, 3 h. How it is done: The DYRK1A kinase assay was performed using recombinant human full-length DYRK1A protein (GST-tagged, expressed in insect cells), in a 12-concentration IC50 format with singlicate wells (12 pt IC50), using microfluidics detection technology. Kinase reactions were assembled in 384 well plates (Greiner) in a total volume of 20 uL as follows: kinase protein was pre-diluted in assay buffer comprising: 100 mM HEPES, pH 7.5, 0.1% BSA, 0.01% Triton X-100, 1mM DTT, 5mM MgCl2 and dispensed into 384 well plate (10 μL per well). All compounds and reference standards were serially pre-diluted in DMSO and added to the protein samples by acoustic dispensing (Labcyte Echo). DMSO concentration was equalized to 1% in all samples. Control samples (0%-inhibition in the absence of inhibitor, DMSO only) and 100%-inhibition (in the absence of enzyme) are assembled in replicates of four and used to calculate the %-inhibition in the presence of compounds. Reactions were initiated by addition of […] of FAM-labeled DYRKtide peptide substrate and ATP prepared in the same assay buffer. Final concentrations of enzyme, ATP and substrate peptide were 0.01 nM, 20 μM and 1 μM, respectively. The kinase reactions are allowed to proceed for 3 h at room temperature. Following incubation, the reactions were quenched by addition of 50 μL of termination buffer (100 mM HEPES, pH7.5, 0.01% Triton X-100, 50 mM EDTA). Terminated plates are analyzed on a microfluidic electrophoresis instrument (Caliper LabChip® 3000, Caliper Life Sciences/Perkin Elmer), enabling electrophoretic separation and detection of product and substrate. A change in the relative intensity of the peptide substrate and phosphorylated product was the parameter measured. Activity in each test sample was determined as the product to sum ratio (PSR): P/(S+P), where P is the peak height of the product, and S is the peak height of the substrate. Percent inhibition (Pinh) was determined using the following equation: Pinh=(PSR0% inh—PSR compound)/(PSR0% inh—PSR100% inh)*100, in which: PSR compound is the product/sum ratio in the presence of compound, PSR0% inh is the product/sum ratio in the absence of compound and the PSR100% inh is the product/sum ratio in the absence of the enzyme. The compound IC50 (50%-inhibition) was determined by the %-inh data (Pinh versus compound concentration) fitted by a 4-parameter sigmoid dose-response model using XLfit software (IDBS).

We go through 15 compounds from patent publication US20210213006A1, “METHODS OF TREATING NEURODEGENERATIVE DISEASES” (Seal Rock Therapeutics, Inc., priority 2018, published 2021).

pIC50: −log10 of the molar value.

T1 sequence (Q99683 649-946 limits assumed): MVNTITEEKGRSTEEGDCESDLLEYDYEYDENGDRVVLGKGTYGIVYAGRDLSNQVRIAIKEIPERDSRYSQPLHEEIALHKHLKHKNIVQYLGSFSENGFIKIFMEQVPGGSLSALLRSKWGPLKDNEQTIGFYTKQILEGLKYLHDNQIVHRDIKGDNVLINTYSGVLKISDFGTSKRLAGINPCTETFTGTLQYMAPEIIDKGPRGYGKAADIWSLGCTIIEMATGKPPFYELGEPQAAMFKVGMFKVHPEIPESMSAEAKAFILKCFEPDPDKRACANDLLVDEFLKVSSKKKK

With `Cc1cc2c(s1)C(=O)N(c1cccc(-c3nncn3C3CC3)n1)C2` [Compound 96, 5-(6-(4-cyclopropyl-4H-1,2,4-triazol-3-yl)pyridin-2-yl)-2-methyl-4,5-dihydro-6H-thieno[2,3-c]pyrrol-6-one], the pIC50 in test [1] was greater than 6.70; in test [2], 6.00 to 6.70.

As for `COc1cc2c(s1)C(=O)N(c1cccc(-c3nncn3C3CC3)n1)C2` [Compound 102, 5-(6-(4-cyclopropyl-4H-1,2,4-triazol-3-yl)pyridin-2-yl)-2-methoxy-4,5-dihydro-6H-thieno[2,3-c]pyrrol-6-one], the negative-log IC50 (pIC50) is greater than 6.70 in test [1] and 6.00 to 6.70 in test [2].

`O=C1c2scc(C3CCOCC3)c2CN1c1cccc(-c2nncn2C2CC2)n1` [Compound 98, 5-(6-(4-cyclopropyl-4H-1,2,4-triazol-3-yl)pyridin-2-yl)-3-(tetrahydro-2H-pyran-4-yl)-4,5-dihydro-6H-thieno[2,3-c]pyrrol-6-one]: the pIC50 in test [1] and in test [2] was 5.00 to 6.00 throughout.

With `CC(C)CNc1csc2c1CN(c1cccc(-c3nncn3C3CC3)n1)C2=O` [Compound 101, 5-(6-(4-cyclopropyl-4H-1,2,4-triazol-3-yl)pyridin-2-yl)-3-(isobutylamino)-4,5-dihydro-6H-thieno[2,3-c] pyrrol-6-one], the pIC50 in test [2] is 5.00 to 6.00.

Turning to `O=C1c2scc(Br)c2CN1c1cccc(-c2nncn2C2CC2)n1` [Compound 100, 3-bromo-5-(6-(4-cyclopropyl-4H-1,2,4-triazol-3-yl)pyridin-2-yl)-4,5-dihydro-6H-thieno[2,3-c]pyrrol-6-one], the pIC50 is 6.00 to 6.70 in test [1] and 5.00 to 6.00 in test [2].

For the compound `CCc1cc2c(s1)C(=O)N(c1cccc(-c3nncn3C3CC3)n1)C2` [Compound 97, 5-(6-(4-cyclopropyl-4H-1,2,4-triazol-3-yl)pyridin-2-yl)-2-ethyl-4,5-dihydro-6H-thieno[2,3-c]pyrrol-6-one], the pIC50 in test [1] is 6.00 to 6.70; in test [2] it was greater than 6.70.

Turning to `O=C1c2sccc2CN1c1cccc(-c2nncn2C2CC2)n1` [Compound 90, 5-(6-(4-Cyclopropyl-4H-1,2,4-triazol-3-yl)pyridin-2-yl)-4,5-dihydro-6H-thieno[2,3-c]pyrrol-6-one], the negative logarithm of the IC50 (pIC50) in test [1] is greater than 6.70; in test [2], 6.00 to 6.70.

Consider `O=C1c2sc(C3CCOCC3)cc2CN1c1cccc(-c2nncn2C2CC2)n1` [Compound 93, 5-(6-(4-cyclopropyl-4H-1,2,4-triazol-3-yl)pyridin-2-yl)-2-(tetrahydro-2H-pyran-4-yl)-4,5-dihydro-6H-thieno[2,3-c]pyrrol-6-one], for which the negative-log IC50 (pIC50) is 6.00 to 6.70 in test [1] and greater than 6.70 in test [2].

On to `CN(C)c1cc2c(s1)C(=O)N(c1cccc(-c3nncn3C3CC3)n1)C2` [Compound 104, 5-(6-(4-cyclopropyl-4H-1,2,4-triazol-3-yl)pyridin-2-yl)-2-(dimethylamino)-4,5-dihydro-6H-thieno[2,3-c] pyrrol-6-one], for which the pIC50 in test [1] and in test [2] was 6.00 to 6.70 throughout.

For the compound `CC(C)n1cnnc1-c1cccc(N2Cc3ccsc3C2=O)n1` [Compound 103, 5-(6-(4-isopropyl-4H-1,2,4-triazol-3-yl)pyridin-2-yl)-4,5-dihydro-6H-thieno[2,3-c]pyrrol-6-one], the pIC50 in test [1] and in test [2] was greater than 6.70 in each case.

Turning to `O=C1c2sc3ccccc3c2CN1c1cccc(-c2nncn2C2CC2)n1` [Compound 95, 2-(6-(4-cyclopropyl-4H-1,2,4-triazol-3-yl)pyridin-2-yl)-1,2-dihydro-3H-benzo[4,5]thieno[2,3-c]pyrrol-3-one], the negative logarithm of the IC50 (pIC50) was 6.00 to 6.70 in test [1] and 5.00 to 6.00 in test [2].

As to `Cc1csc2c1CN(c1cccc(-c3nncn3C3CC3)n1)C2=O` [Compound 99, 5-(6-(4-cyclopropyl-4H-1,2,4-triazol-3-yl)pyridin-2-yl)-3-methyl-4,5-dihydro-6H-thieno[2,3-c]pyrrol-6-one], the pIC50 is 6.00 to 6.70 in test [1] and 5.00 to 6.00 in test [2].

With `CC(=O)c1ccccc1-c1cc2c(s1)C(=O)N(c1cccc(-c3nncn3C3CC3)n1)C2` [Compound 91, 2-(2-Acetylphenyl)-5-(6-(4-cyclopropyl-4H-1,2,4-triazol-3-yl)pyridin-2-yl)-4,5-dihydro-6H-thieno[2,3-c]pyrrol-6-one], the pIC50 in test [1] and in test [2] was 6.00 to 6.70 throughout.

Turning to “N-(3-(5-(6-(4-Cyclopropyl-4H-1,2,4-triazol-3-yl)pyridin-2-yl)-6-oxo-5,6-dihydro-4H-thieno[2,3-c]pyrrol-2-yl)phenypacetamide [Compound 92]”, the results for the pIC50 in test [1] and in test [2] were 6.00 to 6.70 and greater than 6.70, respectively.

Take `O=C1c2scc(-c3ccccc3)c2CN1c1cccc(-c2nncn2C2CC2)n1` [Compound 94, 5-(6-(4-cyclopropyl-4H-1,2,4-triazol-3-yl)pyridin-2-yl)-3-phenyl-4,5-dihydro-6H-thieno[2,3-c]pyrrol-6-one]: the results for the pIC50 in test [1] and in test [2] were 6.00 to 6.70 and 5.00 to 6.00, respectively.

The pIC50 is the negative decadic logarithm of the IC50, by convention in mol/L.
